From patent publication US3980646A, “3-Methylpyrazole-5-carboxylates and medicaments containing these compounds” (Wulfing; Johann A., priority 1974, dated 1976)
Values joined by “and” are separate entries in the source; they are usually repeats but may differ in a detail not shown here. Equal values may be shown once. “Also recorded” adds a separate entry of the source.

Tests used:
[1] = tested on: free fatty acids (FFS); assay: influence on the free fatty acids (FFS) after repeated application once daily for 4 days; format: in vivo, Rats male (Wistar); conditions: for free fatty acids (FFS): individual animals; for free fatty acids (FFS) / free fatty acids (FFS), mean (x10): 4 × appl. 50 mg/kg p.o.; for free fatty acids (FFS), mean (x10): control 1.27, p<0.001
Method: Rats male, repeated application once daily for 4 days,
on the 4th day groups of 10 animals were killed at
intervals of 30 minutes, 1 hour and 2 hours after the
last application by ether narcosis and heart puncture.
10 controls were given esophagus probe, animals starved
for 17 hours before killing (cf. FIG. 4)
7-[3-(N-methyl-2-hydroxyethyl)-amino-2-
hydroxypropyl]-1,3-dimethylxanthine-3-
methylpyrazole-5-carboxylate 50 mg/kg peroral
3-methylpyrazole-5-carboxylic acid (3-MPC)
eq./kg 15 mg/kg peroral

[2] = tested on: Triglycerides; assay: triglycerides in hyperlipacidaemic rats treated with octylphenol polyethylene glycolether; format: in vivo, Male rats (Wistar)
Method: Male rats, starve for 22 hours, ether narcosis, heart puncture
Dose: 1000 mg/kg of octylphenyl polyethylene glycolether i.v.
6 hours before blood removal
Dose: 100 mg/kg of 7-[3-(N-methyl-N-2-hydroxyethyl)-amino-2-
hydroxypropyl]-1,3-dimethylxanthine-3-methylpyrazole-5-
carboxylate by esophagus probe, 6 hours, 4 hours and
2 hours before blood removal

[3] = tested on: serum fatty acids (FFS); assay: influence on the serum fatty acids (FFS) of normal animals; format: in vivo, Female rats (Wistar); conditions: normal female rats, 100 mg/kg oral, 1 hour after application
Method: (§1) Investigations on a total of 260 Wistarrats were conducted with 7-[3-(N-methyl-N-2-hydroxyethyl)-amino-2-hydroxypropyl]-1,3-dimethylxanthine-3-methylpyrazole-5-carboxylate.
(§2) Examination of the influence of 7-[3-(N-methyl-N-2-hydroxy-
(§3) ethyl)-amino-2-hydroxypropyl]-1,3-dimethylxanthine-3-methyl-
(§4) pyrazole-5-carboxylate on the serum fatty acids (FFS) of
Female rats, starve for 5 hours
(§5) Dose: 100 mg/kg body weight, oral by esophagus probe,
(§6) Blood removal: 1 hour after application

[4] = tested on: serum triglycerides; assay: influence on the serum triglycerides of repeated application; format: in vivo, rats male (Wistar); conditions: for serum triglycerides: individual animals, starve for 5 hours, 100 mg/kg; for serum triglycerides / serum triglycerides, mean (x10): 100 mg/kg x/day p.o.; for serum triglycerides, mean (x10): control 133.6
Method: Influence on the serum triglycerides of repeated application of
100 mg/kg x/day p.o. rats male, starve for 5 hours, ether narcosis, heart
last application 1 hour before killing (cf. FIG. 3)

[5] = tested on: free fatty acids (FFS); assay: influence on the free fatty acids (FFS) in starved (hyperlipacidaemic) animals, hunger lipolysis; format: in vivo, rats (Wistar); conditions: 1 hour
Method: as §1, §2, §3, §4
Male Rats, starve for 17 hours
as §5, §6
pyrazole-5-carboxylate on the free fatty acids (FFS) in
starved animals 1 hour after application
Comparative examinations of the influence of 7-[3-(N-methyl-
carboxylic acid on the free fatty acids (FFS) in starved
animals 1 hour after application
pyrazole-5-carboxylic acid on the free fatty acids (FFS)
in starved animals 6 hours after application

`CN(CCO)CC(O)Cn1cnc2c1c(=O)n(C)c(=O)n2C.Cc1cc(C(=O)O)[nH]n1` (stereo not drawn) [7-[3-(N-methyl-N-2-hydroxyethyl)-amino-2-hydroxypropyl]-1,3-dimethylxanthine-3-methylpyrazole-5-carboxylate] was tested, and the “free fatty acids (FFS)” value ([1]; 30' after last application) was 0.72 μval/ml plasma and 0.94 μval/ml plasma and 0.69 μval/ml plasma and 0.83 μval/ml plasma and 1.36 μval/ml plasma and 0.89 μval/ml plasma and 0.66 μval/ml plasma and 0.67 μval/ml plasma and 0.86 μval/ml plasma and 1.07 μval/ml plasma, the “free fatty acids (FFS)” value ([1]; 1 h after last appl.) was 0.75 μval/ml plasma and 0.42 μval/ml plasma and 0.45 μval/ml plasma and 0.56 μval/ml plasma and 0.67 μval/ml plasma and 0.54 μval/ml plasma and 0.86 μval/ml plasma and 0.63 μval/ml plasma and 0.98 μval/ml plasma and 0.89 μval/ml plasma and the “free fatty acids (FFS)” value ([1]; 2 h after last appl.) was 0.79 μval/ml plasma and 0.58 μval/ml plasma and 0.94 μval/ml plasma and 0.80 μval/ml plasma and 1.10 μval/ml plasma and 1.07 μval/ml plasma and 0.84 μval/ml plasma and 0.90 μval/ml plasma and 0.97 μval/ml plasma and 0.83 μval/ml plasma. The “free fatty acids (FFS), mean (x10)” value ([1]; 30' after last application) was 0.87 μval/ml plasma, the “free fatty acids (FFS), mean (x10)” value ([1]; 1 h after last appl.) was 0.68 μval/ml plasma and the “free fatty acids (FFS), mean (x10)” value ([1]; 2 h after last appl.) was 0.88 μval/ml plasma. The “weakening of effect on free fatty acid content by pretreatment” value ([1]; repeated application, result in words) was “does not have this effect”, the triglyceride level ([2]; hyperlipacidaemic rats, result in words) was “significant reduction in the triglyceride level” and the TG ([2]; individual animals, octylphenol polyethylene glycolether 1000 mg/kg i.v. 6 hours before, 100 mg/kg per os 6, 4 and 2 hours before killing) was 644.4 mg % and 687.4 mg % and 701.6 mg % and 707.4 mg % and 610.0 mg % and 703.1 mg % and 695.9 mg % and 711.7 mg %. For the same compound, the “TG, mean (x)” value ([2]; mean, octylphenol polyethylene glycolether 1000 mg/kg i.v., 100 mg/kg per os 6, 4 and 2 hours before killing, control x = 777.2, p<0.001) was 687.0 mg %, the FFS ([3]; individual animals, starve for 5 hours, 100 mg/kg) was 0.51 μval/ml and 0.58 μval/ml and 0.52 μval/ml and 0.56 μval/ml and 0.57 μval/ml and 0.48 μval/ml and 0.54 μval/ml and the “FFS, mean (φ)” value ([3]; mean of test series, control φ 0.60) was 0.53 μval/ml. For the same compound, the “effect on the serum triglycerides on repeated application” value ([4]; 100 mg/kg over 4 days, result in words) was “uniform and, in some cases, even increased effect; also recorded: still significantly reduced”, the serum triglycerides ([4]; 1st day) was 85.9 mg% and 57.3 mg% and 118.6 mg% and 104.5 mg% and 65.9 mg% and 88.8 mg% and the “serum triglycerides, mean (x10)” value ([4]; 1st day) was 82.6 mg%. The serum triglycerides ([4]; 2nd day) was 38.7 mg% and 61.6 mg% and 54.4 mg% and 63.0 mg% and 95.9 mg% and 87.3 mg% and 127.4 mg% and 74.4 mg% and 57.2 mg% and 88.7 mg%, the “serum triglycerides, mean (x10)” value ([4]; 2nd day) was 74.8 mg% and the serum triglycerides ([4]; 3rd day) was 60.1 mg% and 63.0 mg% and 90.2 mg% and 108.8 mg% and 50.1 mg% and 97.4 mg% and 80.2 mg% and 105.9 mg% and 58.7 mg%. For the same compound, the “serum triglycerides, mean (x10)” value ([4]; 3rd day) was 77.4 mg%, the serum triglycerides ([4]; 4th day) was 30.1 mg% and 73.0 mg% and 67.0 mg% and 64.4 mg% and 60.1 mg% and 44.4 mg% and 58.7 mg% and 101.7 mg% and 67.3 mg% and the “serum triglycerides, mean (x10)” value ([4]; 4th day) was 61.1 mg%. For the same compound, the FFS ([5]; Table 2, individual animals, male rats, starve for 17 hours, 100 mg/kg oral, 100 mg/kg) was 0.29 μval/ml and 0.34 μval/ml and 0.54 μval/ml and 0.47 μval/ml and 0.67 μval/ml and 0.46 μval/ml and 0.44 μval/ml and 0.43 μval/ml and 0.39 μval/ml and 0.48 μval/ml and 0.51 μval/ml and 0.45 μval/ml, the “FFS, mean (φ)” value ([5]; Table 2, mean, male rats, starve for 17 hours, 100 mg/kg oral, control φ 0.91, p<0.001) was 0.46 μval/ml and the FFS ([5]; Table 4 dose-effect, starved animals, 2.0 mg/kg, n 10, control 0.87, ***p<0.001) was 0.51 μval/ml. The FFS ([5]; Table 4 dose-effect, starved animals, 2.5 mg/kg, n 13, control 0.86) was 0.50 μval/ml, the FFS ([5]; Table 4 dose-effect, starved animals, 5 mg/kg, n 5, control 0.83) was 0.43 μval/ml and the FFS ([5]; Table 4 dose-effect, starved animals, 10 mg/kg, n 10, control 0.97) was 0.53 μval/ml. For the same compound, the FFS ([5]; Table 4 dose-effect, starved animals, 20 mg/kg, n 5, control 0.90) was 0.56 μval/ml, the FFS ([5]; Table 4 dose-effect, starved animals, 30 mg/kg, n 4, control 1.02) was 0.54 μval/ml and the FFS ([5]; Table 4 dose-effect, starved animals, 40 mg/kg, n 5, control 1.02) was 0.48 μval/ml.
